Laboratory results taken from patent US20110201622A1, “Solid Forms Comprising A Cyclopropyl Amide Derivative” (priority 2010, published 2011).

Columns and labels:
[1] = Dynamic vapor sorption (DVS) analysis; assay type: physicochemical; conditions: about ambient temperature, about 0% RH to about 90% RH
Protocol: Solid material obtained according to Example 5 was analyzed by DVS techniques. Isothermic DVS analysis was performed at about ambient temperature by increasing a sample of Form I of Compound I from about 0% RH to about 90% RH.
DVS analysis is performed on samples prepared according to standard methods using standard equipment, e.g., a DVS instrument commercially available from Surface Measurement Systems, Ltd.™(Alperton, London, UK). Samples maintained at ambient temperature are cycled between about 0% RH and about 90% RH. Percent changes in mass are recorded, which are indicative of moisture sorption and desorption.

[2] = Thermal gravimetric analysis (TGA); assay type: physicochemical
Protocol: Solid material obtained according to the Example 5 was analyzed by thermal techniques.

C[C@@H]1CN(C2CCC2)CCN1C(=O)[C@H]1C[C@@H]1c1ccc(C(N)=O)cc1 [Form I of Compound I, 4-{(1S, 2S)-2-[((R)-4-cyclobutyl-2-methylpiperazin-1-yl)carbonyl]-cyclopropyl}-benzamide]
hygroscopicity (DVS analysis) [1]: substantially nonhygroscopic | mass loss (TGA) ([2]; upon heating from about 20° C. to about 100° C.): about 0.25% | further mass loss (TGA) ([2]; upon heating from about 100° C. to about 160° C.): about 0.25%
